Laboratory results reported in patent publication US11345710B2, “Imidazo[1,2-b]pyrimido[4,5-d]pyridazin-5(6H)-ones and the use thereof” (IMPACT THERAPEUTICS (SHANGHAI), INC, priority 2017, dated 2022).
Read-outs that look alike come from different tables or passages of the source.

Experiments:
NCI-H1299 cells = assay: MTT based cell viability assay on NCI-H1299 cells; conditions: Homo sapiens, read-out: IC50, growth inhibition on NCI-H1299 cells
Method: Determination of the Cell Growth Inhibiting Activity of 6-(2,6-dichlorophenyl)-2-((4-(4-methylpiperazin-1-yl)phenyl)amino)imidazo[1,2-b]pyrimido[4,5-d]pyridazin-5(6H)-one and Analogs on NCI-H1299 Cells Using a MTT Based Cell Viability Assay
The thawed NCI-H1299 cells were cultured and passaged to the third generation, and the growth state was good and the confluence was about 90%, which began to be used in the experiment. The NCI-H1299 cells were digested with trypsin, centrifuged at 800 rpm for 5 min, the supernatant was discarded, resuspended with fresh culture medium, and counted. 1000 Cells are seeded to each well of a 96-well plate. The cells are incubated at 37° C. in a 5% CO2 cell culture incubator overnight. The tested sample (including the tested compound and the reference compound AZD1775) was diluted continuously to 8 concentrations (the last concentration was negative control of DMSO) with a 1:3 and 1:10 dilution in DMSO respectively: 10 μM, 3.3 μM, 1 μM, 0.33 μM, 0.1 μM, 0.033 μM, 0.01 μM, 0 μM (the final concentration of DMSO was 1%). 5 μL of each concentration was added to 120 μL of culture medium (25 times diluted), and the mixture was shaken well. The overnight cells were taken and the culture medium was removed, 195 μL of fresh culture medium was added to each well, and 5 μL of diluted culture medium containing the corresponding concentration of the tested sample was added respectively, and the culture plate was then placed in the 5% CO2 cell culture incubator at 37° C. for 3 d. After removing the original solution and adding 100 μL of fresh serum-free DMEM culture medium containing MTT (0.5 mg/mL) per well, the culture was continued. The original solution was removed after 4 hrs and 100 μl DMSO was added to each well. The 96-well cell culture plates were shaken away from light for 10 min and readed in a multifunctional reader at 552/630/690 nm to give absorption values (OD values). The data were analyzed using a graphic software (Graph Pad Prism 5.0) and the inhibitory activity of the compound on cell proliferation was plotted in terms of cell survival and compound concentration. The IC50 values were fitted by the S-shaped dose-response curve equation as follows: Y=100/(1+10^(Log C−Log IC50)), where C was the concentration of testing compounds.

Wee1 kinase (h) = Wee1 kinase (h) (Homo sapiens, UniProt P30291); assay: Wee1 kinase (h) detection method, [γ-33P]-ATP filter assay; type: biochemical; conditions: 10 μM ATP, 40 minutes at room temperature
Method: Wee1 kinase (h) was incubated with 20 mM Tris/HCl pH 8.5, 0.2 mM EDTA, 500 μM […], 10 mM MgAcetate and 10 μM [γ-^33P]-ATP. Then the stock solution of all compounds under test with 50× concentration in 100% DMSO was added to make the final concentration of 1/0.1/0.01 μM, and then mixed the mixture well. The reaction was initiated by the addition of the Mg/ATP mix. After incubation for 40 minutes at room temperature, the reaction was stopped by the addition of phosphoric acid to a concentration of 0.5%. 10 μL of the reaction liquor was then spotted onto a P30 filtermat and washed four times in 0.425% phosphoric acid and once in methanol prior to drying and scintillation counting. Each compound sample was duplicated in duplicate. The negative control was lack of all the components of Wee1 enzyme, and the positive was addition of 30% phosphoric acid to terminate the reaction. The Wee1 inhibitor AZD1775 was detected at 10/0.01 μM at the same experiment condition.

LoVo cells = assay: MTT based cell viability assay on LoVo cells; conditions: Homo sapiens, 72 h, read-out: IC50, growth inhibition on LoVo cells
Method: Determination of the Cell Growth Inhibiting Activity of 6-(2,6-dichlorophenyl)-2-((4-(4-methylpiperazin-1-yl)phenyl)amino)imidazo[1,2-b]pyrimido[4,5-d]pyridazin-5(6H)-one and Analogs Thereof on LoVo Cells Using a MTT Based Cell Viability Assay
The thawed LoVo cells were cultured and passaged to the third generation, and the growth state was good and the confluence was about 90%, which began to be used in the experiment. The LoVo cells were digested with trypsin, centrifuged at 800 rpm for 5 min, the supernatant was discarded, resuspended with fresh culture medium, and counted. 6000 Cells are seeded to each well of a 96-well cell culture plate. The cells were incubated at 37° C. in a 5% CO2 cell culture incubator overnight. The tested sample (including the tested compound and the reference compound AZD1775) was diluted continuously to 8 concentrations (the last concentration was negative control of DMSO) with a 1:3 and 1:10 dilution in DMSO respectively: 10 μM, 3.3 μM, 1 μM, 0.33 μM, 0.1 μM, 0.033 μM, 0.01 μM, 0 μM (the final concentration of DMSO was 1%). 5 μL of each concentration was added to 120 μL of culture medium (25 times diluted), and the mixture was shaken well. The overnight cells were taken and the culture medium was removed, 195 μL of fresh culture medium was added to each well, and 5 μL of diluted culture medium containing the corresponding concentration of the tested sample was added respectively, and the culture plate was then placed in the 5% CO2 cell culture incubator at 37° C. for 3 d. After removing the original solution and adding 100 μL of fresh serum-free DMEM culture medium containing MTT (0.5 mg/mL) per well, the culture was continued. The original solution was removed after 4 hrs and 100 μl DMSO was added to each well. The 96-well cell culture plates were shaken away from light for 10 min and readed in a multifunctional reader at 552/630/690 nm to give absorption values (OD values). The data were analyzed using a graphic software (Graph Pad Prism 5.0) and the inhibitory activity of the compound on cell proliferation was plotted in terms of cell survival and compound concentration. The IC50 values were fitted by the S-shaped dose-response curve equation as follows: Y=100/(1+10^(Log C−Log IC50)), where C was the concentration of testing compounds.

[1] = 72 h, NCI-H1299 cells, 3 d, MTT

Sequence of Wee1 kinase (h) (P30291 whole entry): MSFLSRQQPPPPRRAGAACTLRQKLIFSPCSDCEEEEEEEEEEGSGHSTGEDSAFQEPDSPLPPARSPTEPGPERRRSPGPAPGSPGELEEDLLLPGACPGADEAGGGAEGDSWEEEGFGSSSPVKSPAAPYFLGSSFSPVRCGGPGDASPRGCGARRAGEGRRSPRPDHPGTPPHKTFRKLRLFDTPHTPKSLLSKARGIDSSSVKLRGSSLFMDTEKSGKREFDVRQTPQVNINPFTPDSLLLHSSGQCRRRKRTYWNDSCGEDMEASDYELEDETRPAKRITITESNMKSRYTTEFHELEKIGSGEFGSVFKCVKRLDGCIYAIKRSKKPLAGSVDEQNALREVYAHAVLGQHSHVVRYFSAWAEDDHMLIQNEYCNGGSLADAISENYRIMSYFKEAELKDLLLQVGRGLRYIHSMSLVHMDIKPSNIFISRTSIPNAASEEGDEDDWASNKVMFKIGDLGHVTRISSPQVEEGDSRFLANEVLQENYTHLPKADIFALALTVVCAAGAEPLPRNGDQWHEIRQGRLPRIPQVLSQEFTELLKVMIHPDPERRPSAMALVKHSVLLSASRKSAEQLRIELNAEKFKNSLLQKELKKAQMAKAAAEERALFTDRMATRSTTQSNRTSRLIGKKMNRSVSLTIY

IC50 (NCI-H1299 cells; [1]) [nM]	Inh. (%) of Wee1 kinase (Wee1 kinase (h); C 1 μm) [%]	IC50 (LoVo cells; LoVo cells, 3 d, MTT) [nM]	Inh. (%) of Wee1 kinase (Wee1 kinase (h); C 0.01 μm) [%]	Inh. (%) of Wee1 kinase (Wee1 kinase (h); C 0.1 μm) [%]	Compound	IC50 (NCI-H1299 cells; NCI-H1299, 72 h) [nM]	IC50 (LoVo cells; LoVo) [nM]
445	96	818			CN1Cc2cc(Nc3ncc4c(=O)n(-c5c(F)cccc5Cl)n5ccnc5c4n3)ccc2C(C)(C)C1 [Example 12, 6-(2-chloro-6-fluorophenyl)-2-((2,4,4-trimethyl-1,2,3,4-tetrahydroisoquinolin-7-yl)amino)imidazo[1,2-b]pyrimido[4,5-d]pyridazin-5(6H)-one]		
738	85	488			Cc1cc(Nc2ncc3c(=O)n(-c4c(F)cccc4F)n4ccnc4c3n2)cc(C)c1N1CCN(C)CC1 [Example 13, 6-(2,6-difluorophenyl)-2-((3,5-dimethyl-4-(4-methylpiperazin-1-yl)phenyl)amino)imidazo[1,2-b]pyrimido[4,5-d]pyridazin-5(6H)-one]		
587	93	871			Cc1cc(Nc2ncc3c(=O)n(-c4c(C)cccc4F)n4ccnc4c3n2)ccc1N1CCN(C)CC1 [Example 14, 6-(2-fluoro-6-methylphenyl)-2-((3-methyl-4-(4-methylpiperazin-1-yl)phenyl)amino)imidazo[1,2-b]pyrimido[4,5-d]pyridazin-5(6H)-one]		
904	87	832			Cc1cc(Nc2ncc3c(=O)n(-c4c(C)cccc4F)n4ccnc4c3n2)cc(C)c1N1CCN(C)CC1 [Example 15, 6-(2-fluoro-6-methylphenyl)-2-((3,5-dimethyl-4-(4-methylpiperazin-1-yl)phenyl)amino) imidazo[1,2-b]pyrimido[4,5-d]pyridazin-5(6H)-one]		
365	93	424	22	73	Cc1cc(Nc2ncc3c(=O)n(-c4c(C)cccc4Cl)n4ccnc4c3n2)ccc1N1CCN(C)CC1 [Example 16, 6-(2-chloro-6-methylphenyl)-2-((3-methyl-4-(4-methylpiperazin-1-yl)phenyl)amino)imidazo[1,2-b]pyrimido[4,5-d]pyridazin-5(6H)-one]		
802	96	902	5	56	Cc1cc(Nc2ncc3c(=O)n(-c4c(C)cccc4Cl)n4ccnc4c3n2)cc(C)c1N1CCN(C)CC1 [Example 17, 6-(2-chloro-6-methylphenyl)-2-((3,5-dimethyl-4-(4-methylpiperazin-1-yl)phenyl)amino)imidazo[1,2-b]pyrimido[4,5-d]pyridazin-5(6H)-one]		
1080	87	579			CN1CCN(c2ccc(Nc3ncc4c(=O)n(-c5c(F)cccc5F)n5ccnc5c4n3)cc2Cl)CC1 [Example 18, 6-(2,6-difluorophenyl)-2-((3-chloro-4-(4-methylpiperazin-1-yl)phenyl)amino)imidazo[1,2-b]pyrimido[4,5-d]pyridazin-5(6H)-one]		
743	92	408			Cc1cc(Nc2ncc3c(=O)n(-c4c(F)cccc4F)n4ccnc4c3n2)cc(F)c1N1CCN(C)CC1 [Example 19, 6-(2,6-difluorophenyl)-2-((3-fluoro-5-methyl-4-(4-methylpiperazin-1-yl)phenyl)amino)imidazo[1,2-b]pyrimido[4,5-d]pyridazin-5(6H)-one]		
597	77	364			Cc1cc(Nc2ncc3c(=O)n(-c4c(F)cccc4F)n4ccnc4c3n2)cc(Cl)c1N1CCN(C)CC1 [Example 20, 6-(2,6-difluorophenyl)-2-((3-chloro-5-methyl-4-(4-methylpiperazin-1-yl)phenyl)amino) imidazo[1,2-b]pyrimido[4,5-d]pyridazin-5(6H)-one]		
511	95	259			CN1CCN(c2ccc(Nc3ncc4c(=O)n(-c5c(F)cccc5Cl)n5ccnc5c4n3)cc2Cl)CC1 [Example 21, 6-(2-chloro-6-fluorophenyl)-2-((3-chloro-4-(4-methylpiperazin-1-yl)phenyl)amino)imidazo[1,2-b]pyrimido[4,5-d]pyridazin-5(6H)-one]		
376	95	138	21		Cc1cc(Nc2ncc3c(=O)n(-c4c(F)cccc4Cl)n4ccnc4c3n2)cc(F)c1N1CCN(C)CC1 [Example 22, 6-(2-chloro-6-fluorophenyl)-2-((3-fluoro-5-methyl-4-(4-methylpiperazin-1-yl)phenyl)amino)imidazo[1,2-b]pyrimido[4,5-d]pyridazin-5(6H)-one]		
528	91	195			Cc1cc(Nc2ncc3c(=O)n(-c4c(F)cccc4Cl)n4ccnc4c3n2)cc(Cl)c1N1CCN(C)CC1 [Example 23, 6-(2-chloro-6-fluorophenyl)-2-((3-chloro-5-methyl-4-(4-methylpiperazin-1-yl)phenyl)amino)imidazo[1,2-b]pyrimido[4,5-d]pyridazin-5(6H)-one]		
249	96	144	10		Cc1cc(Nc2ncc3c(=O)n(-c4c(F)cccc4Cl)n4ccnc4c3n2)cc(F)c1N1CCC(N(C)C)CC1 [Example 25, 6-(2-chloro-6-fluorophenyl)-2-((3-fluoro-5-methyl-4-(4-(dimethylamino)piperidin-1-yl)phenyl)amino)imidazo[1,2-b]pyrimido[4,5-d]pyridazin-5(6H)-one]		

Compound	IC50 (NCI-H1299 cells; [1]) [nM]	Inh. (%) of Wee1 kinase (Wee1 kinase (h); C 1 μm) [%]	IC50 (LoVo cells; LoVo cells, 3 d, MTT) [nM]	Inh. (%) of Wee1 kinase (Wee1 kinase (h); C 0.01 μm) [%]	Inh. (%) of Wee1 kinase (Wee1 kinase (h); C 0.1 μm) [%]	IC50 (NCI-H1299 cells; NCI-H1299, 72 h) [nM]	IC50 (LoVo cells; LoVo) [nM]
Cc1cc(Nc2ncc3c(=O)n(-c4c(Cl)cccc4Cl)n4ccnc4c3n2)ccc1N1CCNCC1 [Example 26, 6-(2,6-dichlorophenyl)-2-((3-methyl-4-(piperazin-1-yl)phenyl)amino)imidazo[1,2-b]pyrimido[4,5-d]pyridazin-5(6H)-one]				27		268	201
